The results in this text go back to patent EP4600263A1, “KERATIN YK93-9, PREPARATION METHOD THEREFOR, PHARMACEUTICAL COMPOSITION THEREOF, AND USE THEREOF” (INSTITUTE OF MATERIA MEDICA, CHINESE ACADEMY OF MEDICAL …, priority 2022, dated 2024).

Molecules are shown by their SMILES. Where a name gives a salt, the structure may show the parent alone.

Series [1] relates to acetic acid-induced writhing of mice. In words: pharmacodynamic test on mouse pain model (acetic acid-induced writhing). The following applies: Tramadol Hydrochloride 50mg/kg; 1% acetic acid intraperitoneally, writhing within 15 minutes. It is filed as in vivo, Kunming mice. On the procedure:
• Animals: Male Kunming mice; • Drugs: Tramadol Hydrochloride Sustained Release Tablets, Glacial acetic acid, YK93-9; • Instruments: electronic balance, timer • Experiment grouping: • Normal control group; • Positive control group: Tramadol Hydrochloride group; • Protein YK93-9, (0.5g/kg) group.
Mice in the YK93-9 (0.5g/kg) group were administered by gavage, while mice in the model group were given an equal volume of CMC-Na once a day for 7 consecutive days. 30 minutes after the last administration, 1% acetic acid was administered intraperitoneally, and the writhing times of mice within 15 minutes was recorded, and the inhibition rate of drug-induced writhing reaction was calculated. The observation criteria were concave abdominal cavity, extended hind limbs, and raised buttocks.
The inhibition rate was calculated by (Mean number of writhing reactions in the normal control group - Mean number of writhing reactions in the treatment group)/Mean number of writhing reactions in the normal control group *100%.

Series [2] has as its system mouse prostatic hyperplasia model. Description: pharmacodynamic test on mouse prostatic hyperplasia model (subcutaneous propionate testosterone). It is filed as in vivo, Kunming mice. The following applies: 30 days; for Average weight: male Kunming mice; for prostate index: wet weight of the prostate (mg)/body weight of the mouse (g). On the procedure: • Animals: Male Kunming mice, weight: 18-20 grams • Drugs: propionate testosterone injection (Ningbo Second Hormon Factory), finasteride (Merck Sharp & Dohme, MSD) • Instruments: electronic balance • Experiment grouping: Normal control group; • Model group: Androgen loading Model; • Positive control group: finasteride (1mg/kg) group; finasteride (3 mg/kg) group; • YK93-9 (0.5g/kg) group.
Preparation of experimental animals: The experimental animals were adapted to the experimental environment (temperature 22°C±2°C, relative humidity 50%±2%) for 1 day.
Subcutaneous injection of propionate testosterone to replicate mice prostatic hyperplasia model: Mice were randomly grouped 10 in each group before the model being established. Propionate testosterone (0.01mg/kg) in soybean oil was injected subcutaneously, once a day for 30 consecutive days. Mice in the normal control group were injected subcutaneously with an equal volume of sodium carboxymethyl cellulose. Immediately after the model was established, finasteride 1mg/kg, finasteride 3m g/kg, or YK93-9 0.5g/kg were orally administered. Mice were weighed on the next day. After 30 days of administration, mice were weighed, executed. The prostate was excised through a median incision in the lower abdomen, the wet weight was weighed, and the prostate index was calculated by the wet weight of the prostate (mg)/body weight of the mouse (g).
The average value, standard deviation and standard error of the prostate index in each group were calculated. The data from the groups were compared with each other by T.TEST, and P<0.05 was considered as a significant difference.

The mark [3] stands for this setting: cyclophosphamide 0.1 g/kg group, before administration.
Where [4] appears, read: cyclophosphamide 0.1 g/kg intraperitoneally, single time.
Setting [5] is: cyclophosphamide 0.1 g/kg intraperitoneally, single time, vs normal control group.
[6] abbreviates: cyclophosphamide 100mg/kg, vs normal control group, P<0.05.
The mark [7] stands for this setting: cyclophosphamide 0.1 g/kg once a week.

Description for B16F10 melanoma: Subcutaneous inoculation of B16F10 cell suspension to replicate a mouse melanoma model: Under sterile conditions, the tumor block was removed, ground into tumor fluid, the concentration was adjusted with physiological saline to 2.58 × 10^6 /ml, and 0.2 ml was taken to evenly inoculate subcutaneously on the armpit back of mice. On the next day, the animals were randomly grouped and administration began (recorded as Day 0). […] On the day of treatment, weight was measured, 20µL of blood was obtained by taking blood from the eye socket and the blood routine analysis was performed, the tumor block was peeled off, weighed and photographed, and the tumor suppression rate was calculated.
(§1) The tumor suppression rate [(The average weight of the tumor in the normal control group - the average weight of the tumor in the experimental group) / The average weight of the tumor in the normal control group × 100 %] and average value, standard deviation and standard errors of tumor weight were calculated. The data from the groups were compared with each other by T.TEST, and P<0.05 was considered as a significant difference.
Description for EL-4 lymphoma: Subcutaneous inoculation of EL-4 cell suspension to replicate a mouse lymphoma model: The EL-4 tumor tissue was ground into a suspension using a glass homogenizer, the tumor suspension was aspirated with a syringe, the number of live cells was calculated, the cell concentration was adjusted to 2.0*10^6/ml with physiological saline, and then the suspension was injected into the left armpit of mice with 0.2 ml/mouse. […] On the day of treatment, weight was measured, 20µl of blood was obtained from the orbital blood and the routine blood analysis was performed. The tumor blocks were stripped, weighed and photographed, and the tumor suppression rate was calculated.
as §1
Description for Lewis lung cancer: Subcutaneous inoculation of Lewis cell suspension to replicate mouse breast cancer model: The Lewis tumor tissue was ground into a suspension with a glass homogenizer, the tumor suspension was aspirated with a syringe, the number of live cells was calculated, the concentration of the cells was adjusted to 2.6*10^6/ml with physiological saline, and then the suspension was injected to the left armpit of the mouse with 0.2 ml/mouse. […] On the day of the treatment, the weight was measured, 20µl of blood was obtained from the orbital blood and the routine blood analysis was performed. The tumor blocks were stripped, weighed and photographed, and the tumor suppression rate was calculated.
The tumor suppression rate [(The average weight of the tumor in the normal control group - the average weight of the tumor in the experimental group) / The average weight of the tumor in the normal control group × 100 %] and the average value, standard deviation and standard errors of tumor weight were calculated . The data from the groups were compared with each other by T.TEST, and P<0.05 was considered as a significant difference.

`COc1cccc(C2(O)CCCCC2CN(C)C)c1` (stereo not drawn) [Tramadol Hydrochloride] yielded a Number of writhing in series [1] of 0.0±0.00.
Turning to `O=P1(N(CCCl)CCCl)NCCCO1` (stereo not drawn) [cyclophosphamide, Cyclophosphamide], the “Change of weight Before administration” value in the series with Lewis lung cancer (setting [3]) amounted to 17.60 ± 0.59 g; in the series with B16F10 melanoma (setting [3]) it was 18.97 ± 0.55 g. For the same compound, the entries for the “Change of weight After administration” value in the series with Lewis lung cancer (setting [4]) and with B16F10 melanoma (setting [7]) were 19.95 ± 0.77 g and 19.07 ± 1.46 g, respectively. The Tumor weight stood at 0.14 ± 0.09 g in the series with Lewis lung cancer (setting [4]), 0.12 ± 0.03 g with EL-4 lymphoma (setting [4]) and 0.26 ± 0.11 g in the series on B16F10 melanoma (setting [7]). Further, the Tumor suppression with Lewis lung cancer (setting [5]) was found to be 95.35%; in the series on EL-4 lymphoma (setting [5]) it was 95.67%; with B16F10 melanoma (cyclophosphamide 0.1 g/kg once a week, vs normal control group), 85.82%. Moreover, in the series with EL-4 lymphoma (setting [6]), the “leukocytes (routine blood analysis)” value was “significantly reduced”. Moreover, the “lymphocytes (routine blood analysis)” value with EL-4 lymphoma (setting [6]) was “significantly reduced”. The “monocytes (routine blood analysis)” value with EL-4 lymphoma (setting [6]) is “significantly reduced”. In addition, in the series with EL-4 lymphoma (setting [6]), the “neutrophils (routine blood analysis)” value is “significantly reduced”.
On to `CC(C)(C)NC(=O)[C@H]1CC[C@H]2[C@@H]3CC[C@H]4NC(=O)C=C[C@]4(C)[C@H]3CC[C@]12C` [finasteride], for which, in series [2] (finasteride 1mg/kg orally), the “wet weight of the prostate” value was determined as 31.8 ± 4.8 mg, the Average weight came to 43.5 ± 3.5 g and the prostate index came to 0.75±0.12. Moreover, in series [2] (finasteride 3mg/kg orally), the “wet weight of the prostate” value was 29.2 ± 1.4 mg, the Average weight stood at 40.7 ± 3.1 g and the prostate index is on record as 0.72±0.08.
